# Activity calls are given as the source filed them. No cut-off for these calls is given here.
# Columns and labels:
# MDA-MB-231 [1] = assay: Induction cell cycle arrest in human MDA-MB-231 cells assessed as increase in p21 expression at 0.4 uM measured after 48 hrs by Western blot analysis; format: functional, cell-based
# MDA-MB-435 = assay: Antiproliferative activity against human MDA-MB-435 cells assessed as inhibition rate incubated for 72 hrs by MTT assay; format: functional, cell-based; details: MDA-MB-435, 72 h
# [2] = Toxicity in PDTX SCID mouse model at 5 to 20 mg/kg measured upto 7 days; format: organism-based; details: in vivo, 168 h, dose 5-20 mg/kg, time <=7 day
# MDA-MB-231 [3] = assay: Induction cell cycle arrest in human MDA-MB-231 cells assessed as accumulation at G2 phase at 0.1 uM measured after 48 hrs by PI staining based flow cytometry (reference value: 10.2%); format: functional
# [4] = biological target: T1, DNA topoisomerase 1 (Homo sapiens) (UniProt P11387); assay: Inhibition of topoisomerase 1 (unknown origin) assessed as relaxation of supercoiled plasmid pBR322 DNA at 20 uM incubated for 15 mins by agarose gel electrophoresis
# T1 sequence (whole entry): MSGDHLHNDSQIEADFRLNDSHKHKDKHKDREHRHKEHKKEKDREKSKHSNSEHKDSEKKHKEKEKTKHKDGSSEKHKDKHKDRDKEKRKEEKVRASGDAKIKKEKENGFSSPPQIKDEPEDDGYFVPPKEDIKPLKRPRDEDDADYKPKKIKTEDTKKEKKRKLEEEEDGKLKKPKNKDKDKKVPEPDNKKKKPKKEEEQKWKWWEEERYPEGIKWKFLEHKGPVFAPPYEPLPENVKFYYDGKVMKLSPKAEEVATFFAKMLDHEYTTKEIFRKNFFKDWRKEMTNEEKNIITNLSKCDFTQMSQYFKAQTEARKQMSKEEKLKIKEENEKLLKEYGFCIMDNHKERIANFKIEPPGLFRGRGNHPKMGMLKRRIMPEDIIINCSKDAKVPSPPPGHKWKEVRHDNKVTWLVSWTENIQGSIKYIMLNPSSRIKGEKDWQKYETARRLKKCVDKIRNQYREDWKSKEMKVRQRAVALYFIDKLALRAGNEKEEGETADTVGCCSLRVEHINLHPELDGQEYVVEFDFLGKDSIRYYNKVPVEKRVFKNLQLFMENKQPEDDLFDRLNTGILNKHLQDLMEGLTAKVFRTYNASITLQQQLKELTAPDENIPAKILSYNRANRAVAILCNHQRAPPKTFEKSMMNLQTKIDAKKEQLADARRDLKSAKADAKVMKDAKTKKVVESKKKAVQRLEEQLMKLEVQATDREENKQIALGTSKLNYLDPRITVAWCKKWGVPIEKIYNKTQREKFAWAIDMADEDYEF
# MDA-MB-231 [5] = assay: Induction of apoptosis in human MDA-MB-231 cells assessed as increase in cleaved caspase-3 expression at 0.1 to 0.4 uM measured after 48 hrs by Western blot analysis; format: functional, cell-based; details: dose 0.1-0.4 µM
# MDA-MB-231 [6] = assay: Induction of apoptosis in human MDA-MB-231 cells assessed as increase in cytochrome c expression at 0.1 to 0.4 uM measured after 48 hrs by Western blot analysis; format: functional, cell-based; details: dose 0.1-0.4 µM
# MDA-MB-231 [7] = assay: Induction cell cycle arrest in human MDA-MB-231 cells assessed as increase in CDK2 expression at 0.4 uM measured after 48 hrs by Western blot analysis; format: functional, cell-based
# [8] = biological target: T1, DNA topoisomerase 1 (Homo sapiens); assay: Inhibition of topoisomerase 1 (unknown origin) assessed as relaxation of supercoiled plasmid pBR322 DNA upto 500 uM incubated for 15 mins by agarose gel electrophoresis; details: dose microM <=500, time 15.0 min
# A549 = assay: Antiproliferative activity against human A549 cells assessed as inhibition rate incubated for 72 hrs by MTT assay; format: functional, cell-based; details: A549, 72 h
# MDA-MB-231 [9] = assay: Inhibition of PI3K phosphorylation in human MDA-MB-231 cells at 0.4 uM measured after 48 hrs by Western blot analysis; format: cell-based
# MDA-MB-231 [10] = assay: Induction of ROS generation in human MDA-MB-231 cells transfected with siRNA-Top1 by fluorescent dye […] based flow cytometry; format: functional, cell-based
# MDA-MB-231 [11] = assay: Antiproliferative activity against human MDA-MB-231 cells assessed as inhibition rate incubated for 72 hrs by MTT assay; format: functional, cell-based; details: MDA-MB-231, 72 h
# [12] = Selectivity index, ratio of IC50 for human MCF-10A cells to IC50 for human MDA-MB-231 cells; details: MCF-10A cells versus MDA-MB-231 cells
# MDA-MB-231 [13] = assay: Induction cell cycle arrest in human MDA-MB-231 cells assessed as increase in p53 expression at 0.4 uM measured after 48 hrs by Western blot analysis; format: functional, cell-based
# [14] = biological target: T1, DNA topoisomerase 1 (Homo sapiens); assay: Inhibition of topoisomerase 1 (unknown origin) assessed as relaxation of supercoiled plasmid pBR322 DNA at 50 uM incubated for 15 mins by agarose gel electrophoresis
# MCF-10A = assay: cells; format: ADME, cell-based; details: Homo sapiens, 72 h
# Description: Antiproliferative activity against human MCF-10A cells assessed as inhibition rate incubated for 72 hrs by MTT assay
# MDA-MB-231 [15] = assay: Induction cell cycle arrest in human MDA-MB-231 cells assessed as accumulation at G1 phase at 0.2 uM measured after 48 hrs by PI staining based flow cytometry (reference value: 53.7%); format: functional
# MDA-MB-231 [16] = assay: Induction cell cycle arrest in human MDA-MB-231 cells assessed as accumulation at S phase at 0.4 uM measured after 48 hrs by PI staining based flow cytometry (reference value: 36%); format: functional
# [17] = biological target: T1, DNA topoisomerase 1 (Homo sapiens); assay: Induction of topoisomerase 1-DNA cleavable complex in human MDA-MB-231 cells assessed as increase in cleavable complex by measuring SDS-K+ precipitable complex at 15 uM measured up to 15 hrs by liquid scintillation counting analysis; format: cell-based; details: time hrs <=15
# MDA-MB-231 [18] = assay: Effect on PI3K expression in human MDA-MB-231 cells at 0.4 uM measured after 48 hrs by Western blot analysis; format: functional, cell-based
# MDA-MB-231 [19] = assay: Induction cell cycle arrest in human MDA-MB-231 cells assessed as accumulation at G1 phase at 0.1 uM measured after 48 hrs by PI staining based flow cytometry (reference value: 53.7%); format: functional
# MCF7 = assay: Antiproliferative activity against human MCF7 cells assessed as inhibition rate incubated for 72 hrs by MTT assay; format: functional, cell-based; details: MCF7, 72 h
# 4T1 = assay: Antiproliferative activity against mouse 4T1 cells assessed as inhibition rate incubated for 72 hrs by MTT assay; format: functional, cell-based; details: 4T1, 72 h
# MDA-MB-231 [20] = assay: Induction of DNA damage in human MDA-MB-231 cells assessed as ROS-mediated oxidative DNA lesions at 0.4 uM measured after 12 hrs by alkaline comet assay; format: functional, cell-based
# MDA-MB-231 [21] = assay: Induction cell cycle arrest in human MDA-MB-231 cells assessed as accumulation at G2 phase at 0.4 uM measured after 48 hrs by PI staining based flow cytometry (reference value: 10.2%); format: functional
# MDA-MB-231 [22] = assay: Induction of ROS generation in human MDA-MB-231 cells by fluorescent dye […] based flow cytometry; format: functional, cell-based
# MDA-MB-231 [23] = assay: Antiproliferative activity against human MDA-MB-231 cells assessed as inhibition rate at 10 uM incubated for 72 hrs by MTT assay; format: functional
smiles,measurement,setting,value
O=C1c2cc(Cl)ccc2OC2c3oc4ccc(O)cc4c3CCN12 (stereo not drawn),Activity,MDA-MB-231 [1],Active
same,IC50,MDA-MB-435,420 nM
same,Activity,[2],Non-Toxic
same,Activity,MDA-MB-231 [3],7.2%
same,inhibition,[4],Active
same,Activity,MDA-MB-231 [5],Active
same,Activity,MDA-MB-231 [6],Active
same,Activity,MDA-MB-231 [7],Active
same,Activity,[8],inactive
same,IC50,A549,5240 nM
same,inhibition,MDA-MB-231 [9],Active
same,Activity,MDA-MB-231 [10],Active
same,IC50,MDA-MB-231 [11],360 nM
same,selectivity ratio,[12],18.8
same,Activity,MDA-MB-231 [13],Active
same,inhibition,[14],Active
same,IC50,MCF-10A,6760 nM
same,Activity,MDA-MB-231 [15],72.3%
same,Activity,MDA-MB-231 [16],22.9%
same,Activity,[17],Active
same,Activity,MDA-MB-231 [18],inactive
same,Activity,MDA-MB-231 [19],68.1%
same,IC50,MCF7,620 nM
same,IC50,4T1,730 nM
same,Activity,MDA-MB-231 [20],Active
same,Activity,MDA-MB-231 [21],6.9%
same,Activity,MDA-MB-231 [22],Active
same,inhibition at 10 µM,MDA-MB-231 [23],84.3%

# Source: ChEMBL document CHEMBL5029185, “Discovery of Novel Polycyclic Heterocyclic Derivatives from Evodiamine for the Potential Treatment of Triple-Negative Breast Cancer” (J Med Chem, 2021)
